3 molecules from patent US20230181628A1 (priority 2020, published 2023) can be followed below.

Like-named read-outs stand apart in the source and are kept apart here. A value given as a limit tells only on which side of the number the result lay.

The nature of assay [1]: Lewis acidity measuring method (1): reaction rate constant of reaction between CoTPP and oxygen in the presence of a Lewis acid. It counts as physicochemical.
Assay [2] deals with tongue cancer cells HSC-3. The conditions noted are these: 60 minutes incubation, 48 hours culture.
The subject of assay [3] is colon cancer cells HT29. The conditions noted are these: 60 minutes incubation, 48 hours culture.
Assay [4] deals with UM-UC-3 cells.
Assay [5] deals with UM-UC-3 cells. This is another data set of the same source.
Assay [6] concerns UM-UC-3 cells. Particulars: 500 ppm NaClO2 for 120 minutes, then 24 hours culture; PBS Control 14.6%.
Assay [7] concerns oral cancer cells HO-1-u-1. Particulars: 60 minutes incubation, 48 hours culture.
In assay [8] the test system is UM-UC-3 cells. The conditions noted are these: 500 ppm NaClO2 for 120 minutes, then 24 hours culture; vs PBS group.
In assay [9] the test system is bladder cancer clinical specimen-derived tumor.
The test system of assay [10] is pancreatic cancer cells PK05. The conditions noted are these: 48 hours.
Assay [11] relates to various bladder cancer cells (UM-UC-3, UM-UC-2, EJ-1, BOY-12E, 5637). The conditions noted are these: 120 minutes incubation.
Assay [12] concerns pancreatic cancer cells PK10. The conditions noted are these: 48 hours.
Assay [13] relates to UM-UC-3 cells. Particulars: 500 ppm NaClO2 for 120 minutes.
The test system of assay [14] is colon cancer cells HT116. Particulars: 60 minutes incubation, 48 hours culture.
[15] abbreviates: concentration of 31 ppm or more.

As for `CCCC[N+](CCCC)(CCCC)CCCC.F[P-](F)(F)(F)(F)F` [tetrabutylammonium hexafluorophosphate], the “kcat (reaction rate constant of reaction between CoTPP and oxygen in the presence of a Lewis acid)” value in assay [1] was more than 0.1 M^−2 s^−1.

As to benzalkonium chloride, in assay [1] (acetonitrile, saturated O2, room temperature), the “kcat (reaction rate constant of reaction between CoTPP and oxygen in the presence of a Lewis acid)” value is 0.18 M^−2 s^−1.

sodium chlorite [NaClO2]: the “viability / proliferation of cancer cells” value in [2], in [3], in [7] and in assay [14] was “effect of inhibiting proliferation of cancer cells” throughout. Besides, the “reactive oxygen species detected, compared with MA-T” value in assay [4] (100 ppm NaClO2 (A100) vs 100 ppm NaClO2 + 100 ppm benzethonium chloride) is “equivalent to or more than that with MA-T”. Besides, the “reactive oxygen production (fluorescence plate reader)” value in assay [4] (500 ppm NaClO2 alone) is given as “remarkable reactive oxygen production”. In addition, the “fluorescence of active oxygen in cells (fluorescence microscopy)” value in assay [4] (500 ppm NaClO2 alone, final concentration) is given as “remarkable active oxygen production”. The “production of reactive oxygen species on contact with cells (fluorescence intensity)” value in assay [4] (over time) was “produced reactive acid species in a time-dependent manner”. Moreover, the “cell proliferation vs contact time” value in [5] (500 ppm NaClO2, 30, 60, 90, 120 minutes) was “inhibited in a time-dependent manner”. Further, the “inhibition of cell proliferation” value in assay [5] (500 ppm NaClO2, 120 minutes incubation, then 48 hours culture) is listed as “more than 60%”. Also, the “apoptotic rate of UM-UC-3 cells” value in [6] came to 43.8%. Also, the “fraction ratio in subG1 phase” value in assay [8] is “significantly increased”. Also, the “excised tumor photograph and tumor weight” value in assay [9] (tumor immersed in 500 ppm NaClO2, excised on day 27) is reported as “increase in bladder tumors was inhibited”. Further, the “proliferation of bladder cancer tumors (tumor volume)” value in [9] (tumor immersed in 500 ppm NaClO2 for 120 minutes before transplantation, measured from day 12) is “significantly inhibited”. Moreover, the “proliferation inhibitory effect vs concentration (viability)” value in assay [10] (0-500 ppm) and in assay [12] (0-500 ppm) was “concentration-dependent proliferation inhibitory effect” each time. Further, the “pancreatic cancer cell proliferation” value in [10] (setting [15]) and in [12] (setting [15]) was “almost completely inhibited” throughout. For the same molecule, the “proliferation inhibition vs concentration” value in [11] (then 48 hours culture) is listed as “concentration-dependent proliferation inhibition”. For the same molecule, the bladder cancer proliferation entry in assay [11] (at 500 ppm or more) is “almost completely inhibited”. Also, the figures for the cell morphology entry in [13] (0 hours after removal) and in assay [13] (24 hours after removal) were “morphological changes” and “regression of cells”, respectively. Further, in assay [13] (24 hours after removal, magnified photomicrograph), the “vesicle considered to be an apoptotic vesicle” value is reported as “formation of a vesicle”.
